Data set [1] in a line: Inhibition of dengue virus 2 NS2B-NS3 protease pre-incubated for 10 mins before Boc-Gly-Arg-Arg-peptidyl-4-methylcoumaryl-7-amide substrate addition and measured after 2 hrs by fluorescence based assay. More on the design: species or system dengue virus type 2.
Data set [2] deals with dengue virus type 2. Briefly: Antiviral activity against dengue virus 2 infected in BHK21 cells assessed as inhibition of virus-induced cytopathic effect after 4 days by resazurin dye based method. The following applies: Dengue virus, BHK-21, 96 h; read-out: EC50. Type of data set: functional, cell-based. For orientation: Protection from cytopathic effect is a common read-out in antiviral testing.

Data set [3] can be described thus: Toxicity in BHK21 cells assessed a reduction in cell viability after 4 days by resazurin dye based method. More on the design: species or system Mesocricetus auratus, BHK-21. The following applies: hamster.
Data set [4] can be described thus: Stability assessed as dengue virus 2 NS2B-NS3 protease-mediated compound degradation by measuring linear peptide with P1 C-terminus and P' N-terminus at 200 uM in presence of […] incubated for 0 to 22.5 hrs by LC-MS method. Type of data set: ADME. The following applies: dengue virus type 2, 200 µM.
A short description of data set [5]: Stability assessed as dengue virus 2 NS2B-NS3 protease-mediated compound degradation at 200 uM in presence of […] incubated for 0 to 22.5 hrs by LC-MS method. Type of data set: ADME. The following applies: dengue virus type 2, 200 µM.
The nature of data set [6]: Stability assessed as dengue virus 2 NS2B-NS3 protease-mediated compound degradation at 200 uM in presence of […] incubated for 22.5 hrs by LC-MS method. Type of data set: ADME. The following applies: dengue virus type 2, 22.5 h.
Data set [7] is described as follows: Stability assessed as dengue virus 2 NS2B-NS3 protease-mediated compound degradation at 200 uM in presence of 100 nM enzyme incubated for 24 hrs by LC-MS method. Type of data set: ADME. The following applies: dengue virus type 2, 24 h.

With `N=C(N)NCCC[C@@H]1NC(=O)[C@H](CCCNC(=N)N)NC(=O)[C@@H](CCCNC(=N)N)NC(=O)[C@@H](Cc2ccccc2)NC(=O)[C@H](Cc2cccc3ccccc23)NC(=O)[C@H](CCc2ccccc2)NC(=O)[C@H](CO)NC(=O)[C@H](CCCCN)NC1=O`, half-maximal inhibition in data set [1] (IC50) was put at 1.6 µM. The EC50 (as a rule, the midpoint of the concentration-response curve) in data set [2] was 23.2 µM. Further, half-maximal cytotoxicity in data set [3] (CC50 at 96 h) was put at 233 µM. In addition, the Drug metabolism entry in data set [4] was “Metabolite_Detected”. Also, the Stability entry in data set [5] was “Unstable”.

For the molecule `C[C@@H]1NC[C@H](CCCCN)NC(=O)[C@H](CCCNC(=N)N)NC(=O)[C@H](CCCNC(=N)N)NC(=O)[C@@H](CCCNC(=N)N)NC(=O)[C@@H](Cc2ccccc2)NC(=O)[C@H](Cc2cccc3ccccc23)NC(=O)[C@H](CCc2ccccc2)NC1=O`, the IC50 (usually the concentration that gives 50% inhibition) in data set [1] amounted to 2.1 µM. For the same molecule, in data set [2], the concentration giving a half-maximal response (EC50) amounted to 11.4 µM. Besides, the CC50 (usually the concentration giving 50% cytotoxicity) at 96 h in data set [3] was 129 µM. Further, the Stability result in data set [6] is recorded as “Stable”.

`C[C@@H]1NC(=O)[C@H](CCCCN)NC(=O)[C@H](CCCNC(=N)N)NC(=O)[C@H](CCCNC(=N)N)NC(=O)[C@@H](CCCNC(=N)N)NC(=O)[C@@H](Cc2ccccc2)NC(=O)[C@H](Cc2cccc3ccccc23)NC(=O)[C@H](CCc2ccccc2)NC1=O` yielded an IC50 in data set [1] of 1.7 µM. Further, the concentration for a half-maximal effect (EC50) in data set [2] was 11.8 µM. Further, in data set [3], the CC50 at 96 h worked out at 134 µM. Also, the values for the Stability entry in data set [5] and in data set [7] were “Unstable” and “Stable”, respectively.

Source of the values: ChEMBL document CHEMBL4033720, “Discovery of novel cyclic peptide inhibitors of dengue virus NS2B-NS3 protease with antiviral activity” (Bioorg Med Chem Lett, 2017).
